Among the data in patent publication US12371428B2 (Exelixis, Inc., priority 2019, dated 2025) are IC50 values, retold here.

Assay [1] deals with Human MET (residues 956-1390) (Homo sapiens (Human), UniProt P08581). The experiment in a line: Human Met kinase assay, HTRF KinEase (Example D-2). It counts as biochemical. The settings on record: protocol of Example D-2 (other compounds); read-out: c-Met IC50. The essentials:
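IC50 values come from a 4-parameter logistic fit of the […] fluorescence ratio, set between DMSO (100%) and reference compound at 1 μM (0%). Reactions held MET 956-1390 at 0.1 ng/well, ATP at Km, biotinylated peptide, 5 mM MgCl2, 1 mM MnCl2, 1 mM DTT and 3% DMSO, and ran 40 min at room temperature before streptavidin-XL665/Eu-antibody detection.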
In general terms: Time-resolved FRET reads energy transfer from a long-lived donor to a nearby acceptor.

Assay [2] has as its target KDR (phospho-KDR, VEGF165-stimulated HUVEC cells) (Homo sapiens (Human), UniProt P35968). Briefly: KDR autophosphorylation ELISA in HUVEC cells (Example G). Format: cell-based. Conditions: cellular activity; KDR autophosphorylation ELISA in HUVEC cells. An outline of the steps: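 First, endothelial cells were cultured a day, then kept without serum for another day. Next came 1 h with serially diluted compound, a brief 5 min VEGF165 stimulus (100 ng/mL), rapid lysis, and ELISA detection of receptor phosphorylation relative to stimulated and non-stimulated controls.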
(In general: In an ELISA, binding on a coated surface is turned into a signal by an enzyme label.)

Sequence of KDR (phospho-KDR, VEGF165-stimulated HUVEC cells) (P35968 20-1356): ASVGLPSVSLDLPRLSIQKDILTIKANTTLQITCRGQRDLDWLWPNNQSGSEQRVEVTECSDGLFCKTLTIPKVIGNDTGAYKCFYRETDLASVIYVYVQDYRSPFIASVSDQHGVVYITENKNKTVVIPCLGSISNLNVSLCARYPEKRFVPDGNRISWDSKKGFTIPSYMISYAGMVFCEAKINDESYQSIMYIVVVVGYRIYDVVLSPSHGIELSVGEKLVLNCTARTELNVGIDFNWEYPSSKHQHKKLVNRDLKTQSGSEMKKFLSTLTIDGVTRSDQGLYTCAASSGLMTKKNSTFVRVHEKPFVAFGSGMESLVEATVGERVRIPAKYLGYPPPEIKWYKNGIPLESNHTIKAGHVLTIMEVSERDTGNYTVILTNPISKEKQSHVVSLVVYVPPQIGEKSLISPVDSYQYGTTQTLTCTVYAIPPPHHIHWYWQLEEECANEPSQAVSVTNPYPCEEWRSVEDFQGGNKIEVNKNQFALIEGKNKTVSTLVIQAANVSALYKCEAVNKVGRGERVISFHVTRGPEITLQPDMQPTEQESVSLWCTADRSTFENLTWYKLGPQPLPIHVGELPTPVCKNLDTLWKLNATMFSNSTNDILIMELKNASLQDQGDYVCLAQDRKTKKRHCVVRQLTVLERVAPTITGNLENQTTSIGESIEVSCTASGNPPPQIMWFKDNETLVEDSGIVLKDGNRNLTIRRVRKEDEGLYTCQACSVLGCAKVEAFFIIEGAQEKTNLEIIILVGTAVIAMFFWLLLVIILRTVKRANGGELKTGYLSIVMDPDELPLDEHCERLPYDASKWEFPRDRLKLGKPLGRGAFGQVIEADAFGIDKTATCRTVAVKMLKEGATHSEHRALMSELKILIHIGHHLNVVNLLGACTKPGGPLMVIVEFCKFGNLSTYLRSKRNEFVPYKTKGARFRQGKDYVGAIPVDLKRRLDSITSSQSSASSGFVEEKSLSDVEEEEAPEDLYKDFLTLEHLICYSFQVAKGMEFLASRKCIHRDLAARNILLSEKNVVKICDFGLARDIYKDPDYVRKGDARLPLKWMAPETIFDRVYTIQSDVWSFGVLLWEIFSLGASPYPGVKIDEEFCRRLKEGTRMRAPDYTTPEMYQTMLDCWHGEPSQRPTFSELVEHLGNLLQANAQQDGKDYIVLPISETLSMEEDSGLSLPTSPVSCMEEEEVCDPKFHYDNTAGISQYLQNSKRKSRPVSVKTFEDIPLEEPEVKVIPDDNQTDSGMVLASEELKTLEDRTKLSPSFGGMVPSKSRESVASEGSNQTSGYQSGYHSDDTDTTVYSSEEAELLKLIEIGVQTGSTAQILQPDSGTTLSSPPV
Sequence of Human MET (residues 956-1390) (P08581 956-1390): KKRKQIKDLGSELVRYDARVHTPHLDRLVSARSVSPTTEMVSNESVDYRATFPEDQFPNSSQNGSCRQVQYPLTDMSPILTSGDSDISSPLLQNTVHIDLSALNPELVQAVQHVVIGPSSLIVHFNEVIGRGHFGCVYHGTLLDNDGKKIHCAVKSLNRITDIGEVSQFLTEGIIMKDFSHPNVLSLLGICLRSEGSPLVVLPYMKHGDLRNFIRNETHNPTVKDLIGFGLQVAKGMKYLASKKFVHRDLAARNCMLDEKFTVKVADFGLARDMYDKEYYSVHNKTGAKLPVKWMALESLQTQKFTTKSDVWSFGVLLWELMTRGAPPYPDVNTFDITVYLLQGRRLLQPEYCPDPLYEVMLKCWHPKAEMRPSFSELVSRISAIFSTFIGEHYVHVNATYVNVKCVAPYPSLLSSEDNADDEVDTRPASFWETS

Broadly, the IC50 is the concentration at which inhibition is half-maximal. For `COc1cnc2c(Oc3ccc(NC(=O)c4c(C)ncc(-c5ccc(F)cc5)c4O)cc3F)ccnc2c1` [Compound 80, N-[3-Fluoro-4-[(7-methoxy-1,5-naphthyridin-4-yl)oxy]phenyl]-5-(4-fluorophenyl)-4-hydroxy-2-methylpyridine-3-carboxamide], the IC50 in assay [1] and in assay [2] was less than 0.1 µM in each case.
For the compound `COc1cc2nccc(Oc3ccc(NC(=O)c4c(C)n(C)cc(-c5ccc(F)cc5)c4=O)cc3F)c2nc1OC` [Compound 81, N-[4-[(6,7-Dimethoxy-1,5-naphthyridin-4-yl)oxy]-3-fluorophenyl]-5-(4-fluorophenyl)-1,2-dimethyl-4-oxopyridine-3-carboxamide], the IC50 in assay [1] and in assay [2] was less than 0.1 µM throughout.
Take `CCn1cc(-c2ccc(F)cc2)c(=O)c(C(=O)Nc2ccc(Oc3ccnc4cc(OC)c(OC)nc34)c(F)c2)c1C` [Compound 82, N-[4-[(6,7-Dimethoxy-1,5-naphthyridin-4-yl)oxy]-3-fluorophenyl]-1-ethyl-5-(4-fluorophenyl)-2-methyl-4-oxopyridine-3-carboxamide]: the IC50 in assay [1] was less than 0.1 µM; in assay [2] it was 0.1 to 0.3 µM.
For `COc1cnc2c(Oc3ccc(NC(=O)c4ccc(C)n(-c5ccc(F)cc5)c4=O)cc3F)ccnc2c1` [Compound 83, N-[3-Fluoro-4-[(7-methoxy-1,5-naphthyridin-4-yl)oxy]phenyl]-1-(4-fluorophenyl)-6-methyl-2-oxopyridine-3-carboxamide] the same measures were less than 0.1 µM and less than 0.1 µM.
In the same order, the values of `COc1ccc2nccc(Oc3ccc(NC(=O)c4ccc(C)n(-c5ccc(F)cc5)c4=O)cc3F)c2n1` [Compound 84, N-[3-Fluoro-4-[(6-methoxy-1,5-naphthyridin-4-yl)oxy]phenyl]-1-(4-fluorophenyl)-6-methyl-2-oxopyridine-3-carboxamide] are less than 0.1 µM and less than 0.1 µM.
For `COc1ccc2nccc(Oc3ccc(NC(=O)c4ccc(C)n(-c5ccc(F)cc5C)c4=O)cc3F)c2n1` [Compound 85, N-[3-Fluoro-4-[(6-methoxy-1,5-naphthyridin-4-yl)oxy]phenyl]-1-(4-fluoro-2-methylphenyl)-6-methyl-2-oxopyridine-3-carboxamide] the same measures were 0.1 to 0.3 µM and less than 0.1 µM.
Regarding `COc1cc2nccc(Oc3ccc(NC(=O)c4cc(C(C)=O)c(C)n(-c5ccc(F)cc5)c4=O)cc3F)c2nc1OC` [Compound 86, 5-Acetyl-N-[4-[(6,7-dimethoxy-1,5-naphthyridin-4-yl)oxy]-3-fluorophenyl]-1-(4-fluorophenyl)-6-methyl-2-oxopyridine-3-carboxamide], the IC50 is less than 0.1 µM in assay [1] and 0.1 to 0.3 µM in assay [2].
In the same order, the values of `COc1cc2nccc(Oc3ccc(NC(=O)c4cc(C#N)c(C)n(-c5ccc(F)cc5)c4=O)cc3F)c2nc1OC` [Compound 87, 5-Cyano-N-[4-[(6,7-dimethoxy-1,5-naphthyridin-4-yl)oxy]-3-fluorophenyl]-1-(4-fluorophenyl)-6-methyl-2-oxopyridine-3-carboxamide] are less than 0.1 µM and more than 0.3 µM.
In the same order, the values of `COc1cc2nccc(Oc3ccc(NC(=O)c4n[nH]c(C)c(-c5ccc(F)cc5)c4=O)cc3F)c2nc1OC` [Compound 88, N-[4-[(6,7-Dimethoxy-1,5-naphthyridin-4-yl)oxy]-3-fluorophenyl]-5-(4-fluorophenyl)-6-methyl-4-oxo-1H-pyridazine-3-carboxamide] are less than 0.1 µM and less than 0.1 µM.
`COc1ccc2nccc(Oc3ccc(NC(=O)c4n[nH]c(C)c(-c5ccc(F)cc5)c4=O)cc3F)c2n1` [Compound 89, N-[3-Fluoro-4-[(6-methoxy-1,5-naphthyridin-4-yl)oxy]phenyl]-5-(4-fluorophenyl)-6-methyl-4-oxo-1H-pyridazine-3-carboxamide]: the IC50 in assay [1] and in assay [2] was less than 0.1 µM throughout.
Turning to `COc1cc2nccc(Oc3ccc(NC(=O)c4n[nH]c(C)c(-c5ccc(F)cc5C)c4=O)cc3F)c2nc1OC` [Compound 90, N-[4-[(6,7-Dimethoxy-1,5-naphthyridin-4-yl)oxy]-3-fluorophenyl]-5-(4-fluoro-2-methylphenyl)-6-methyl-4-oxo-1H-pyridazine-3-carboxamide], the IC50 in assay [1] and in assay [2] was less than 0.1 µM in each case.
For `COc1cc2nccc(Oc3ccc(NC(=O)c4nn(C)c(C)c(-c5ccc(F)cc5)c4=O)cc3)c2nc1OC` [Compound 91, N-[4-[(6,7-Dimethoxy-1,5-naphthyridin-4-yl)oxy]phenyl]-5-(4-fluorophenyl)-1,6-dimethyl-4-oxopyridazine-3-carboxamide], the half-inhibitory concentration (IC50) is less than 0.1 µM in assay [1] and 0.1 to 0.3 µM in assay [2].
Consider `COc1cc2nccc(Oc3ccc(NC(=O)c4nn(C)c(C)c(-c5ccc(F)cc5)c4=O)cc3F)c2nc1OC` [Compound 92, N-[4-[(6,7-Dimethoxy-1,5-naphthyridin-4-yl)oxy]-3-fluorophenyl]-5-(4-fluorophenyl)-1,6-dimethyl-4-oxopyridazine-3-carboxamide], for which the half-maximal inhibitory concentration (IC50) in assay [1] and in assay [2] was less than 0.1 µM in each case.
Take `COc1cc2nccc(Oc3ccc(NC(=O)c4ncc(C)n(-c5ccc(F)cc5)c4=O)cc3F)c2nc1OC` [Compound 93, N-[4-[(6,7-Dimethoxy-1,5-naphthyridin-4-yl)oxy]-3-fluorophenyl]-4-(4-fluorophenyl)-5-methyl-3-oxopyrazine-2-carboxamide]: the IC50 in assay [1] and in assay [2] was less than 0.1 µM throughout.
As to `COc1cnc2c(Oc3ccc(NC(=O)c4ncc(C)n(-c5ccc(F)cc5)c4=O)cc3F)ccnc2c1` [Compound 94, N-[3-Fluoro-4-[(7-methoxy-1,5-naphthyridin-4-yl)oxy]phenyl]-4-(4-fluorophenyl)-5-methyl-3-oxopyrazine-2-carboxamide], the IC50 in assay [1] was less than 0.1 µM; in assay [2], more than 0.3 µM.
As to `COc1cc2nccc(Oc3ccc(NC(=O)c4nc(C)c(C)n(-c5ccc(F)cc5)c4=O)cc3F)c2nc1OC` [Compound 95, N-[4-[(6,7-Dimethoxy-1,5-naphthyridin-4-yl)oxy]-3-fluorophenyl]-4-(4-fluorophenyl)-5,6-dimethyl-3-oxopyrazine-2-carboxamide], the half-inhibitory concentration (IC50) was less than 0.1 µM in assay [1] and more than 0.3 µM in assay [2].
As to `COc1cc2nccc(Oc3ccc(NC(=O)c4ncnc(-c5ccc(F)cc5)c4O)cc3F)c2nc1OC` [Compound 96, N-[4-[(6,7-Dimethoxy-1,5-naphthyridin-4-yl)oxy]-3-fluorophenyl]-6-(4-fluorophenyl)-5-hydroxypyrimidine-4-carboxamide], the concentration for half-maximal inhibition (IC50) in assay [1] and in assay [2] was less than 0.1 µM in each case.
Turning to `COc1cc2nccc(Oc3ncc(NC(=O)c4cn(-c5cnn(C)c5)cc(-c5ccc(F)cc5)c4=O)cc3F)c2cc1OC` [Compound 401, N-[6-(6,7-dimethoxyquinolin-4-yl)oxy-5-fluoropyridin-3-yl]-5-(4-fluorophenyl)-1-(1-methylpyrazol-4-yl)-4-oxopyridine-3-carboxamide], the IC50 in assay [1] was less than 0.1 µM; in assay [2], more than 0.3 µM.
For the compound `COc1cc2nccc(Oc3ncc(NC(=O)c4cn(-c5ccn(C)n5)cc(-c5ccc(F)cc5)c4=O)cc3F)c2cc1OC` [Compound 402, N-[6-(6,7-dimethoxyquinolin-4-yl)oxy-5-fluoropyridin-3-yl]-5-(4-fluorophenyl)-1-(1-methylpyrazol-3-yl)-4-oxopyridine-3-carboxamide], the IC50 in assay [1] was less than 0.1 µM; in assay [2] it was more than 0.3 µM.
In the same order, the values of `CCOc1c(-c2ccc(F)cc2)cnc(C)c1C(=O)Nc1ccc(Oc2ccnc3cc(OC)c(OC)nc23)c(F)c1` [Compound 403, N-[4-[(6,7-dimethoxy-1,5-naphthyridin-4-yl)oxy]-3-fluorophenyl]-4-ethoxy-5-(4-fluorophenyl)-2-methylpyridine-3-carboxamide] are 0.1 to 0.3 µM and 0.1 to 0.3 µM.
On to `COc1cc2nccc(Oc3ccc(NC(=O)c4c5n(cc(-c6ccc(F)cc6)c4=O)CCC5)cc3)c2nc1OC` [Compound 407, N-[4-[(6,7-dimethoxy-1,5-naphthyridin-4-yl)oxy]phenyl]-6-(4-fluorophenyl)-7-oxo-2,3-dihydro-1H-indolizine-8-carboxamide], for which the figures for the IC50 in assay [1] and in assay [2] were less than 0.1 µM and more than 0.3 µM, respectively.
For `CNC(=O)c1cc2c(Oc3ccc(NC(=O)c4c5n(cc(-c6ccc(F)cc6)c4=O)CCC5)cc3F)ccnc2cc1OC` [Compound 408, 4-[2-fluoro-4-[[6-(4-fluorophenyl)-7-oxo-2,3-dihydro-1H-indolizine-8-carbonyl]amino]phenoxy]-7-methoxy-N-methylquinoline-6-carboxamide] the same measures were less than 0.1 µM and less than 0.1 µM.
With `COc1cc2nccc(Oc3ccc(NC(=O)c4c5n(cc(-c6ccc(F)cc6)c4=O)CCC5)cc3F)c2cc1OC` [Compound 409, N-[4-(6,7-dimethoxyquinolin-4-yl)oxy-3-fluorophenyl]-6-(4-fluorophenyl)-7-oxo-2,3-dihydro-1H-indolizine-8-carboxamide], the concentration for half-maximal inhibition (IC50) in assay [1] and in assay [2] was less than 0.1 µM each time.
In the case of `CCn1cc(C(=O)Nc2ccc(Oc3ccnc4cc(O)cnc34)c(F)c2)c(=O)c(-c2ccc(F)cc2)c1C` [Compound 410, 1-ethyl-N-[3-fluoro-4-[(7-hydroxy-1,5-naphthyridin-4-yl)oxy]phenyl]-5-(4-fluorophenyl)-6-methyl-4-oxopyridine-3-carboxamide], the figures for the IC50 in assay [1] and in assay [2] were less than 0.1 µM and more than 0.3 µM, respectively.
